Results from ChEMBL document CHEMBL1201862, “PubChem BioAssay data set” (2004).
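Following 48 hours of exposure in 96-well plates, responses at five concentrations were used to interpolate endpoints linearly. GI50 is the concentration that inhibits growth by half.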 Activity calls are given as the source filed them. Cut-off read from the data, not from the text of the source: active = GI50 up to about 1.1 µM and inactive = higher.

How the values were obtained:
Assay in all cases: NCI-60 cell line screen, 48 h
786-0 = system: 786-0
A498 = system: A498
ACHN = system: ACHN
COLO 205 = system: COLO 205
HCT-116 = system: HCT-116
HOP-92 = system: HOP-92
OVCAR-3 = system: OVCAR-3
OVCAR-4 = system: OVCAR-4
OVCAR-8 = system: OVCAR-8
SF-295 = system: SF-295
SK-MEL-2 = system: SK-MEL-2
SK-MEL-5 = system: SK-MEL-5
SN12C = system: SN12C
SW-620 = system: SW-620
U-251 = system: U-251
MDA-MB-231 = system: MDA-MB-231
NCI/ADR-RES = system: NCI/ADR-RES
PC-3 = system: PC-3

Measured: GI50

C=CCOCCCCC(C(C)=O)C(=O)OC (stereo not drawn)
inactive: 786-0 > 100 µM | A498 > 100 µM | ACHN > 100 µM | COLO 205 > 100 µM | HCT-116 > 100 µM | HOP-92 54.8 µM | OVCAR-3 > 100 µM | OVCAR-4 > 100 µM | OVCAR-8 > 100 µM | SF-295 > 100 µM | SK-MEL-2 > 100 µM | SK-MEL-5 > 100 µM | SN12C > 100 µM | SW-620 > 100 µM | U-251 > 100 µM

N=C(N)SCc1ccc(N=C=S)cc1
inactive: 786-0 13.8 µM | A498 13.9 µM | ACHN 13.2 µM | COLO 205 13.4 µM | HCT-116 14 µM | HOP-92 11.7 µM | MDA-MB-231 7.74 µM | NCI/ADR-RES 16.9 µM | OVCAR-4 14.3 µM | OVCAR-8 15.2 µM | PC-3 15.9 µM | SF-295 17.1 µM | SK-MEL-2 10.4 µM | SK-MEL-5 14 µM | SN12C 14.5 µM | SW-620 12.9 µM | U-251 15.2 µM

Cc1ccc(/N=C2\SC(=NN(C)C)S\C2=N/c2ccc(C)cc2)cc1
inactive: 786-0 > 100 µM | A498 > 100 µM | ACHN > 100 µM | COLO 205 > 100 µM | HCT-116 > 100 µM | HOP-92 > 100 µM | MDA-MB-231 > 100 µM | NCI/ADR-RES > 100 µM | OVCAR-4 > 100 µM | OVCAR-8 > 100 µM | PC-3 > 100 µM | SF-295 > 100 µM | SK-MEL-2 > 100 µM | SK-MEL-5 > 100 µM | SN12C > 100 µM | SW-620 > 100 µM | U-251 > 100 µM

Cc1ccc(C2=C(c3ccccc3)C(O)(c3ccccc3)C(c3ccccc3)=C2c2ccc(C)cc2)cc1
inactive: 786-0 > 100 µM | A498 > 100 µM | ACHN > 100 µM | HCT-116 29.9 µM | OVCAR-8 > 100 µM | SF-295 35.6 µM | SK-MEL-2 6.17 µM | SK-MEL-5 > 100 µM | SN12C > 100 µM | SW-620 > 100 µM | U-251 31.5 µM

NS(=O)(=O)c1ccc(N2C(=O)C(=O)N(c3ccccc3)C2=S)cc1
inactive: 786-0 > 100 µM | A498 > 100 µM | ACHN > 100 µM | COLO 205 > 100 µM | HCT-116 > 100 µM | HOP-92 23.6 µM | MDA-MB-231 > 100 µM | NCI/ADR-RES > 100 µM | OVCAR-4 30.6 µM | OVCAR-8 > 100 µM | PC-3 > 100 µM | SF-295 > 100 µM | SK-MEL-2 > 100 µM | SK-MEL-5 97.1 µM | SN12C > 100 µM | SW-620 > 100 µM | U-251 > 100 µM

COc1ccc(-c2nc3cc(C(F)(F)F)ccc3n2CC2CCCN3CCCCC23)cc1 (stereo not drawn)
inactive: 786-0 19.5 µM | A498 13.4 µM | ACHN 15.6 µM | HCT-116 18.1 µM | HOP-92 14.8 µM | MDA-MB-231 14.3 µM | NCI/ADR-RES 14.1 µM | OVCAR-3 16.1 µM | OVCAR-4 17.1 µM | OVCAR-8 17.1 µM | PC-3 13.6 µM | SF-295 19.2 µM | SK-MEL-2 15.5 µM | SK-MEL-5 14.4 µM | SW-620 15.2 µM | U-251 17 µM

C[n+]1c(-c2ccc(/C=N\Nc3ccnc(N/N=C/c4ccc(-c5cn6ccsc6[n+]5C)cc4)n3)cc2)cn2ccsc21
inactive: 786-0 10.9 µM | A498 17.1 µM | ACHN 32.5 µM | COLO 205 27.6 µM | HOP-92 18.3 µM | MDA-MB-231 15.2 µM | NCI/ADR-RES 51.2 µM | OVCAR-3 > 100 µM | OVCAR-4 58.1 µM | OVCAR-8 27.4 µM | PC-3 48.3 µM | SK-MEL-5 10.6 µM | SN12C 27.1 µM | SW-620 32.7 µM | U-251 32.6 µM
